Three molecules from article PMC11435438, “Cyclin-Dependent Kinase 8 Represents a Positive Regulator of Cytomegalovirus Replication and a Novel Host Target for Antiviral Strategies” (Pharmaceutics, 2024) can be followed below.

The test system of assay [1] is HAdV species C5 DBP-mneongreen. The assay is described as follows: HAdV replication assay in A549 cells. The format is cell-based. Particulars: Human adenovirus sp., A549, read-out: EC50 HAdV. On the procedure: Primary human foreskin fibroblasts (HFFs; obtained from clinical samples at Children’s Hospital in Erlangen, Germany), guinea pig embryonic fibroblasts (GPEFs; generously provided by Mark R. Schleiss from the University of Minnesota in Minneapolis, MN, USA), and rat embryonic fibroblasts were cultivated in Eagle’s Minimal Essential Medium (MEM) supplemented with 1 × GlutaMAX™ (both from Thermo Fisher Scientific, Waltham, MA, USA), 10 µg/mL gentamicin, and 10% fetal bovine serum (FBS; Capricorn, Ebsdorfergrund, Germany). Human glioblastoma–astrocytoma cell line (U373) and mouse embryonic fibroblasts (MEFs), both obtained from ATCC (Manassas, VA, USA), and Vero cell sublineage 76 [26], were cultivated in Dulbecco’s modified Eagle’s medium (DMEM) supplemented with 1 × GlutaMAX™, 10 µg/mL gentamicin, and 10% fetal bovine serum. All cultured cells were maintained under the conditions of 37 °C temperature, 5% CO2, and 80% humidity. The regular monitoring for the absence of mycoplasma contamination was conducted using Lonza™ Mycoalert™ (Thermo Fisher Scientific, Waltham, MA, USA). Cultured cell-based viral replication assays were performed by the use of the HCMV strain AD169 (variant U.K.), the recombinant HCMVs AD169-GFP expressing green fluorescent protein [27], TB40 IE2-YFP and TB40-FLuc expressing an IE2-YFP fusion protein or firefly luciferase (FLuc), and Merlin-GFP [31]. […]
A variety of antiherpesviral and non-herpesviral drug activities were assessed by the cell culture-based viral replication systems, as described elsewhere. […] After incubation at 37 °C for 3 days, iSLK.219 cells were fixed with 10% formalin, washed with PBS, and used for a quantitation of RFP reporter signal by PicoMD counting (ImageXpress® Pico device, Molecular Devices LLC, San Jose, CA, USA). […]

In the next assay the test system is HCMV TB40-YFP. The assay is described as follows: HCMV TB40-YFP replication assay in U373 cells. Type of assay: cell-based, human cytomegalovirus. Particulars: Human betaherpesvirus 5, U373 MG, read-out: EC50 TB40-YFP. As for the experimental part: (§1) (i.e., 1 × TCID25/7d). Immediately after virus adsorption, the cells were treated with antiviral compounds or solvent control (DMSO). Infections were performed in biological quadruplicates, or as indicated for individual experiments. The cells were fixed by the addition of 150 µL 10% formalin/well 7 d p.i. (Merlin-GFP 14 d p.i.), and washed with PBS. For GFP or YFP quantitation, the Victor X4 microplate reader (PerkinElmer, Waltham, MA, USA) was primarily used, or as a very sensitive alternative, the ImageXpress® Pico device (Molecular Devices LLC, San Jose, CA, USA). Mean EC50 values of antiviral efficacy were calculated on the basis of three experimental replicates or as indicated (measurement of fluorescence values in quadruplicate), and percentage values were provided relative to the solvent control (DMSO).

A further assay relates to MCMV-GFP. The assay is described as follows: MCMV-GFP replication assay in MEFs. The format is cell-based, murine cytomegalovirus. The conditions noted are these: Murid betaherpesvirus 1, read-out: EC50 MCMV. From the text:
Similarly, 2 × 10^4 primary embryonic guinea pig fibroblasts GPEFs/96-well, or 1.35 × 10^4 HFFs/96-well, or 2 × 10^4 rat REFs/96-well, or 2 × 10^4 murine MEFs/96-well, were cultivated for infection with GPCMV-GFP, RhCMV-GFP, ChCMV, RCMV-mCherry, or MCMV-GFP, respectively (all approx. MOI of 0.01 referring to 1 × TCID25), and were used for the assessment of antiviral drug activity. To this end, cells were fixed 7 d p.i. (RCMV-mCherry 4 d p.i.), before GFP or mCherry expression was quantified using the Victor X4 microplate reader, or other viral replication markers were measured as explained for the individual experiments. ChCMV replication in HFFs was monitored and quantified by the use of Anti-Cytomegalovirus Antibody Alexa Fluor™ 488. For immunofluorescence staining with Anti-Cytomegalovirus Antibody Alexa Fluor™ 488 (Sigma Aldrich, St. Louis, MO, USA; solution in PBS with 1% FCS), the infected cells were fixed at 7 d p.i. with 10% formalin and permeabilized with 0.2% Triton-x-100. Cell nuclei were counterstained using Höchst dye to be measured using the ImageXpress Pico (Molecular Devices, LLC, San Jose, CA, USA). Mean EC50 values of antiviral efficacy were calculated on the basis of three experimental replicates or as indicated (measurement of fluorescence values in quadruplicate), and percentage values were provided relative to the solvent control (DMSO).

The test system of the next assay is HCMV Merlin-GFP. The assay is described as follows: HCMV Merlin-GFP replication assay in U373 cells. The format is cell-based, human cytomegalovirus. Particulars: Human betaherpesvirus 5, U373 MG, read-out: EC50 Merlin-GFP. As for the experimental part: as §1

In general, EC50 refers to the concentration needed to bring the measured effect to its halfway point. Regarding `CN(C)C(=O)Cn1cc(-c2ccc(-c3cncc4ccccc34)cc2)cn1` [BI-1347], the EC50 in assay [1] was determined as 50 ± 110 nM; in the assay with HCMV TB40-YFP, 19.3 ± 21 nM; in the assay on MCMV-GFP, 1.57 ± 1.71 nM; in the assay with HCMV Merlin-GFP, 1.4 ± 1.37 nM.
For `Cn1ncc2cc(-c3cnc(N)c(Cl)c3N3CCC4(CCNC4=O)CC3)ccc21` [CCT-151921] the same measures were 30 ± 30 nM, 8.5 ± 11.1 nM, 2.65 ± 4.5 nM and 14.7 ± 16.3 nM.
For `Cc1n[nH]c2ncc(C(=O)N3CCC[C@H]3c3ccc(Cl)cc3)cc12` [MSC-2530818] the same measures were 340 ± 260 nM, 12.3 ± 11.3 nM, 1.8 ± 1.99 nM and 4.47 ± 4.4 nM.
